Tests used:
[1] = tested on: pressor; assay: pressor efficiency, inhibition activity pA2; assay type: in vivo; settings: decimal commas
Description: (§1) Certain biological effects of the analogs of oxytocin and vasopressin are set forth in Table I. The inhibition effects of compounds in an in vitro test are expressed as values of pA2, which is the negative logarithm of the molar concentration of inhibitor. This reduces the response of 2X units of an agonistic compound to be equal to the response of 1X units in the absence of inhibitor (Schild, Brit. J. Pharmacol. 2, 189, 1947; Dyckes et al, J. Med. Chem. 17, 160, 1974). In an […] test (uterus in vitro), the value of pA2 corresponds with the negative logarithm of an inhibitor constant according to the relationship [formula] wherein B is the concentration of inhibitor (M), A50 is the concentration of agonistic compound leading to 50% of the maximum effect, and A50B is the concentration of agonistic compound leading to 50% of the maximum effect in the presence of inhibitor B (Eggena et al, J. Gen. Physiol. 52, 465, 1968).

[2] = tested on: uterus in vitro; assay: uterotonic efficiency in vitro, inhibition activity pA2; assay type: cell-based; settings: pA2, negative logarithm of molar inhibitor concentration; decimal commas
Description: as §1

[3] = tested on: galactogogic; assay: galactogogic efficiency, inhibition activity pA2; assay type: in vivo; settings: for Inhibition activity pA2 in the determination of efficiency galactogogic: decimal commas
Description: as §1

[4] = tested on: uterus in situ; assay: uterotonic efficiency in situ, inhibition activity pA2; assay type: in vivo; settings: pA2, negative logarithm of inhibitor constant; decimal commas
Description: as §1

| Molecule | Inhibition activity pA2 in the determination of efficiency pressor [1] | Inhibition activity pA2 in the determination of efficiency uterotonic in vitro [2] | galactogogic agonistic activity ([3]; footnote b: agonistic activity, not pA2) | Inhibition activity pA2 in the determination of efficiency uterotonic in situ [4] | Inhibition activity pA2 in the determination of efficiency galactogogic [3] |
| --- | --- | --- | --- | --- | --- |
| CC[C@H](C)[C@@H]1NC(=O)[C@H](Cc2ccc(O)cc2)NC(=O)[C@@H](NC(C)=O)C(C)(C)SSC[C@@H](C(=O)N2CCC[C@H]2C(=O)N[C@@H](CC(C)C)C(=O)NCC(N)=O)NC(=O)[C@H](CC(N)=O)NC(=O)[C@H](CCC(N)=O)NC1=O [Ia, [1-N-acetylpenicilamine]oxytocin] | ineffective | 4,4 | – | – | – |
| CC[C@H](C)[C@@H]1NC(=O)[C@H](Cc2ccc(OC)cc2)NC(=O)[C@@H](NC(C)=O)C(C)(C)SSC[C@@H](C(=O)N2CCC[C@H]2C(=O)N[C@@H](CC(C)C)C(=O)NCC(N)=O)NC(=O)[C@H](CC(N)=O)NC(=O)[C@H](CCC(N)=O)NC1=O [Ic, [1-N-acetylpenicilamine, 2-O-methyltyrosine]oxytocin] | 6,4 | 5,4 | 0,45 I.U./mg | – | – |
| CC1(C)SSC[C@@H](C(=O)N2CCC[C@H]2C(=O)N[C@@H](CCCCN)C(=O)NCC(N)=O)NC(=O)[C@H](CC(N)=O)NC(=O)[C@H](CCC(N)=O)NC(=O)[C@H](Cc2ccccc2)NC(=O)[C@H](Cc2ccc(O)cc2)NC(=O)[C@H]1N [Id, [1-Penicilamine, 8-lysine]vasopressin] | 6,9 | 6,6 | – | 6,3 | – |
| CC(=O)N[C@@H]1C(=O)N[C@@H](Cc2ccc(O)cc2)C(=O)N[C@@H](Cc2ccccc2)C(=O)N[C@@H](CCC(N)=O)C(=O)N[C@@H](CC(N)=O)C(=O)N[C@H](C(=O)N2CCC[C@H]2C(=O)N[C@@H](CCCCN)C(=O)NCC(N)=O)CSSC1(C)C [Ie, [1-N-Actylpenicilamine, 8-lysine]vasopressin] | ineffective | 5,5 | – | 6,3 | ineffective |
| COc1ccc(C[C@@H]2NC(=O)[C@@H](N)C(C)(C)SSC[C@@H](C(=O)N3CCC[C@H]3C(=O)N[C@@H](CCCCN)C(=O)NCC(N)=O)NC(=O)[C@H](CC(N)=O)NC(=O)[C@H](CCC(N)=O)NC(=O)[C@H](Cc3ccccc3)NC2=O)cc1 [If, [1-Penicilamine, 2-O-methyltyrosine, 8-lysine]vasopressin] | 7,4 | 8,1 | – | 6,9 | 6,8 |
| COc1ccc(C[C@@H]2NC(=O)[C@@H](NC(C)=O)C(C)(C)SSC[C@@H](C(=O)N3CCC[C@H]3C(=O)N[C@@H](CCCCN)C(=O)NCC(N)=O)NC(=O)[C@H](CC(N)=O)NC(=O)[C@H](CCC(N)=O)NC(=O)[C@H](Cc3ccccc3)NC2=O)cc1 [Ig, [1-N-acetylpenicilamine, 2-O-methyltyrosine, 8-lysine]vasopressin] | 6,7 | – | – | – | ineffective |
| CC1(C)SSC[C@H](N)C(=O)N[C@@H](Cc2ccc(O)cc2)C(=O)N[C@@H](Cc2ccccc2)C(=O)N[C@@H](CCC(N)=O)C(=O)N[C@@H](CC(N)=O)C(=O)N[C@@H]1C(=O)N1CCC[C@H]1C(=O)N[C@@H](CCCCN)C(=O)NCC(N)=O [Ih, [6-Penicilamine, 8-lysine]vasopressin] | 6,73 | 6,00 | – | 6,16 | – |
| CC1(C)SSC(C)(C)[C@@H](C(=O)N2CCC[C@H]2C(=O)N[C@@H](CCCCN)C(=O)NCC(N)=O)NC(=O)[C@H](CC(N)=O)NC(=O)[C@H](CCC(N)=O)NC(=O)[C@H](Cc2ccccc2)NC(=O)[C@H](Cc2ccc(O)cc2)NC(=O)[C@H]1N [Ii, [1-Penicilamine, 6-penicilamine, 8-lysine]vasopressin] | 7,18 | 6,80 | – | 6,80 | – |
| [1-Penicilamine, 2-O-methyltyrosine]oxytocin [Ib] | 7,2 | 8,0 | – | 6,9 | 6,8 |

Reference: patent publication US4508645A, “Analogs of neurohypophysial hormones with inhibition effects” (Ceskoslovenska akademie ved, priority 1982, dated 1985)
